# Assay: recombinant barcode read abundance after kanamycin selection (control-corrected) (log10(CPM+1)); higher = more efficient recombination; sequences stand for … in AGTGCAGAGAAAATCGGCCAGTTTTCTCTGCCTGCAGTCCGCATGCCGT…ATTTATGCAGCGGACTGCCTTTCTCCCAAAGTGATAAACCGGACAGTATCATGGACCGGTTTTCCCGGTAATCCGTATTTGCAAGGTTGGTTTCACT; site = the 11-nt target
# Method in brief: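 In E. coli, a pooled library matched targets to IS621 bridge RNA target-binding loops and was introduced alongside a donor plasmid. Cells went onto chloramphenicol/ampicillin/kanamycin with 0.1 mM IPTG or onto chloramphenicol/ampicillin LB agar as control, in duplicate. Recombination efficiency, from recombinant-junction barcodes as counts per million, is averaged and control-corrected. It is reported as log10(CPM+1).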
row,Sequence,recombinant barcode read abundance (log10)
1,"ATGTCCCCTTGGGTTCTAACCTGTTGCTCGT [ATGTCCCCTGA_LTGcore_CT_RTGcore_AC] (site ATGTCCCCTGA) (LTG core: CT, RTG core: AC)",0.161
2,"ATGTCCCGTTGGGTTCTAACCTGTTGCTCAG [ATGTCCCCTGA_LTGcore_GT_RTGcore_CT] (site ATGTCCCCTGA) (LTG core: GT, RTG core: CT)",0.0848
3,"ATGTCCCTCTGGGTTCTAACCTGTTGCTCGA [ATGTCCCCTGA_LTGcore_TC_RTGcore_TC] (site ATGTCCCCTGA) (LTG core: TC, RTG core: TC)",0.122
4,"ATGTCCCTTTGGGTTCTAACCTGTTGCTCAG [ATGTCCCCTGA_LTGcore_TT_RTGcore_CT] (site ATGTCCCCTGA) (LTG core: TT, RTG core: CT)",0.0884
5,"CATATTAAATGGGTTCTAACCTGTTGCCTAG [CATATTACTAG_LTGcore_AA_RTGcore_CT] (site CATATTACTAG) (LTG core: AA, RTG core: CT)",0.0356
6,"CATATTACATGGGTTCTAACCTGTTGCCTTG [CATATTACTAG_LTGcore_CA_RTGcore_CA] (site CATATTACTAG) (LTG core: CA, RTG core: CA)",0.00594
7,"CATATTACTTGGGTTCTAACCTGTTGCCTAG [CATATTACTAG_LTGcore_CT_RTGcore_CT] (site CATATTACTAG) (LTG core: CT, RTG core: CT)",0.22
8,"CATATTACTTGGGTTCTAACCTGTTGCCTAT [CATATTACTAG_LTGcore_CT_RTGcore_AT] (site CATATTACTAG) (LTG core: CT, RTG core: AT)",0.0875
9,"CATATTACTTGGGTTCTAACCTGTTGCCTGC [CATATTACTAG_LTGcore_CT_RTGcore_GC] (site CATATTACTAG) (LTG core: CT, RTG core: GC)",0.0956
10,"CATATTACTTGGGTTCTAACCTGTTGCCTGT [CATATTACTAG_LTGcore_CT_RTGcore_AC] (site CATATTACTAG) (LTG core: CT, RTG core: AC)",0.00796
11,"CATATTAGCTGGGTTCTAACCTGTTGCCTGC [CATATTACTAG_LTGcore_GC_RTGcore_GC] (site CATATTACTAG) (LTG core: GC, RTG core: GC)",0
12,"CATATTAGTTGGGTTCTAACCTGTTGCCTAC [CATATTACTAG_LTGcore_GT_RTGcore_GT] (site CATATTACTAG) (LTG core: GT, RTG core: GT)",0.1
13,"CATATTAGTTGGGTTCTAACCTGTTGCCTAG [CATATTACTAG_LTGcore_GT_RTGcore_CT] (site CATATTACTAG) (LTG core: GT, RTG core: CT)",0.209
14,"CATATTATCTGGGTTCTAACCTGTTGCCTGA [CATATTACTAG_LTGcore_TC_RTGcore_TC] (site CATATTACTAG) (LTG core: TC, RTG core: TC)",0.0468
15,"CATATTATGTGGGTTCTAACCTGTTGCCTCA [CATATTACTAG_LTGcore_TG_RTGcore_TG] (site CATATTACTAG) (LTG core: TG, RTG core: TG)",0.0228
16,"CGAGCCCCATGGGTTCTAACCTGTTGCTGAG [CGAGCCCCTCA_LTGcore_CA_RTGcore_CT] (site CGAGCCCCTCA) (LTG core: CA, RTG core: CT)",1.27
17,"CGAGCCCCATGGGTTCTAACCTGTTGCTGTG [CGAGCCCCTCA_LTGcore_CA_RTGcore_CA] (site CGAGCCCCTCA) (LTG core: CA, RTG core: CA)",0.111
18,"CGAGCCCCGTGGGTTCTAACCTGTTGCTGCG [CGAGCCCCTCA_LTGcore_CG_RTGcore_CG] (site CGAGCCCCTCA) (LTG core: CG, RTG core: CG)",0.493
19,"CGAGCCCCTTGGGTTCTAACCTGTTGCTGAA [CGAGCCCCTCA_LTGcore_CT_RTGcore_TT] (site CGAGCCCCTCA) (LTG core: CT, RTG core: TT)",0.691
20,"CGAGCCCCTTGGGTTCTAACCTGTTGCTGCC [CGAGCCCCTCA_LTGcore_CT_RTGcore_GG] (site CGAGCCCCTCA) (LTG core: CT, RTG core: GG)",0.235
21,"CGAGCCCCTTGGGTTCTAACCTGTTGCTGCG [CGAGCCCCTCA_LTGcore_CT_RTGcore_CG] (site CGAGCCCCTCA) (LTG core: CT, RTG core: CG)",0.339
22,"CGAGCCCCTTGGGTTCTAACCTGTTGCTGGA [CGAGCCCCTCA_LTGcore_CT_RTGcore_TC] (site CGAGCCCCTCA) (LTG core: CT, RTG core: TC)",0.994
23,"CGAGCCCCTTGGGTTCTAACCTGTTGCTGTG [CGAGCCCCTCA_LTGcore_CT_RTGcore_CA] (site CGAGCCCCTCA) (LTG core: CT, RTG core: CA)",0.176

row,Sequence,recombinant barcode read abundance (log10)
1,"CGAGCCCGGTGGGTTCTAACCTGTTGCTGAG [CGAGCCCCTCA_LTGcore_GG_RTGcore_CT] (site CGAGCCCCTCA) (LTG core: GG, RTG core: CT)",0.223
2,"CGAGCCCGTTGGGTTCTAACCTGTTGCTGAC [CGAGCCCCTCA_LTGcore_GT_RTGcore_GT] (site CGAGCCCCTCA) (LTG core: GT, RTG core: GT)",0.156
3,"CGAGCCCTATGGGTTCTAACCTGTTGCTGTA [CGAGCCCCTCA_LTGcore_TA_RTGcore_TA] (site CGAGCCCCTCA) (LTG core: TA, RTG core: TA)",0.083
4,"CGAGCCCTCTGGGTTCTAACCTGTTGCTGAG [CGAGCCCCTCA_LTGcore_TC_RTGcore_CT] (site CGAGCCCCTCA) (LTG core: TC, RTG core: CT)",0.0668
5,"CGAGCCCTGTGGGTTCTAACCTGTTGCTGAG [CGAGCCCCTCA_LTGcore_TG_RTGcore_CT] (site CGAGCCCCTCA) (LTG core: TG, RTG core: CT)",0.134
6,"CGAGCCCTTTGGGTTCTAACCTGTTGCTGAA [CGAGCCCCTCA_LTGcore_TT_RTGcore_TT] (site CGAGCCCCTCA) (LTG core: TT, RTG core: TT)",0.0246
7,"CGCGCCCAATGGGTTCTAACCTGTTGCGGAG [CGCGCCCCTCC_LTGcore_AA_RTGcore_CT] (site CGCGCCCCTCC) (LTG core: AA, RTG core: CT)",0.173
8,"CGCGCCCCTTGGGTTCTAACCTGTTGCGGCT [CGCGCCCCTCC_LTGcore_CT_RTGcore_AG] (site CGCGCCCCTCC) (LTG core: CT, RTG core: AG)",0.0596
9,"CGCGCCCCTTGGGTTCTAACCTGTTGCGGGA [CGCGCCCCTCC_LTGcore_CT_RTGcore_TC] (site CGCGCCCCTCC) (LTG core: CT, RTG core: TC)",0.0431
10,"CGCGCCCCTTGGGTTCTAACCTGTTGCGGTG [CGCGCCCCTCC_LTGcore_CT_RTGcore_CA] (site CGCGCCCCTCC) (LTG core: CT, RTG core: CA)",0.382
11,"CGCGCCCTATGGGTTCTAACCTGTTGCGGTA [CGCGCCCCTCC_LTGcore_TA_RTGcore_TA] (site CGCGCCCCTCC) (LTG core: TA, RTG core: TA)",0.0456
12,"CGGTCCCAATGGGTTCTAACCTGTTGCCAAG [CGGTCCCCTTG_LTGcore_AA_RTGcore_CT] (site CGGTCCCCTTG) (LTG core: AA, RTG core: CT)",0.3
13,"CGGTCCCAATGGGTTCTAACCTGTTGCCATT [CGGTCCCCTTG_LTGcore_AA_RTGcore_AA] (site CGGTCCCCTTG) (LTG core: AA, RTG core: AA)",0.0857
14,"CGGTCCCACTGGGTTCTAACCTGTTGCCAAG [CGGTCCCCTTG_LTGcore_AC_RTGcore_CT] (site CGGTCCCCTTG) (LTG core: AC, RTG core: CT)",0.0364
15,"CGGTCCCATTGGGTTCTAACCTGTTGCCAAT [CGGTCCCCTTG_LTGcore_AT_RTGcore_AT] (site CGGTCCCCTTG) (LTG core: AT, RTG core: AT)",0.494
16,"CGGTCCCCATGGGTTCTAACCTGTTGCCAAG [CGGTCCCCTTG_LTGcore_CA_RTGcore_CT] (site CGGTCCCCTTG) (LTG core: CA, RTG core: CT)",0.51
17,"CGGTCCCCCTGGGTTCTAACCTGTTGCCAGG [CGGTCCCCTTG_LTGcore_CC_RTGcore_CC] (site CGGTCCCCTTG) (LTG core: CC, RTG core: CC)",0.0887
18,"CGGTCCCCGTGGGTTCTAACCTGTTGCCAAG [CGGTCCCCTTG_LTGcore_CG_RTGcore_CT] (site CGGTCCCCTTG) (LTG core: CG, RTG core: CT)",0.38
19,"CGGTCCCCTTGGGTTCTAACCTGTTGCCAGA [CGGTCCCCTTG_LTGcore_CT_RTGcore_TC] (site CGGTCCCCTTG) (LTG core: CT, RTG core: TC)",0.0215
20,"CGGTCCCCTTGGGTTCTAACCTGTTGCCAGG [CGGTCCCCTTG_LTGcore_CT_RTGcore_CC] (site CGGTCCCCTTG) (LTG core: CT, RTG core: CC)",0.129
21,"CGGTCCCCTTGGGTTCTAACCTGTTGCCAGT [CGGTCCCCTTG_LTGcore_CT_RTGcore_AC] (site CGGTCCCCTTG) (LTG core: CT, RTG core: AC)",0.258
22,"CGGTCCCGATGGGTTCTAACCTGTTGCCAAG [CGGTCCCCTTG_LTGcore_GA_RTGcore_CT] (site CGGTCCCCTTG) (LTG core: GA, RTG core: CT)",0.197

# — the supplement of paper PMC11208160
